Reference: patent US20220128542A1, “TREATMENT EFFICIENCY EVALUATION” (TX MEDIC AB, priority 2019, published 2022)

Tested on: brain of rats subjected to closed-head diffuse severe TBI (sTBI)
Assay: HPLC of free amino acids and amino group containing compounds in brain, dose study after sTBI (Example 3)
Assay type: in vivo, rat
Excerpt: Male Wistar rats (n=160) of 300-350 g body weight were used in this study.
1994, 80: 291-300. This model causes diffuse axonal injury and it is able to reproduce the physical and mechanical characteristics of the diffuse TBI in humans.
Rats were placed prone on a bed of specific polyurethane foam inserted in a special container. This foam dissipates the major part of the potential energy (deriving from the mechanical forces) and prevents any rebound of the animal after the impact that could produce spinal damages.
These time points are coincident with the worst biochemical derangement (2 days) or, in the case of a mildly injured brain, with a full metabolic recovery (7 days).
The drug treatment consisted in a subcutaneous injection of 0.5 ml of LMW-DS (Tikomed) and administered at 3 different concentrations (1, 5 and 15 mg/kg body weight), according to the schematic protocol described below.
Sham-operated animals underwent the same procedure of anesthesia but TBI and were used as the control group.
Rats used in this study were divided into 4 groups in order to carry out a study on the efficacy of three different concentrations of LMW-DS at two different times post TBI. As subsequently specified, in each group there were animals subjected to a specific treatment for metabolic analyses and other animals intended to histo-morphological studies, according to the procedures described below.
Rats subjected to sTBI and receiving a single administration of LMW-DS after 30 minutes post-TBI, with sacrifice at 2 days post-TBI. Animals were divided in the following subgroups:
Rats subjected to sTBI and receiving a single administration of LMW-DS after 30 minutes post-TBI, with sacrifice at 7 days post-TBI. Animals were divided in the following subgroups:
Rats (n=12) subjected to sTBI and receiving repeated administrations of the maximal dose of LMW-DS (15 mg/kg b.w.) after 30 minutes, 3 days and 5 days post-TBI, with sacrifice at 7 days post-TBI. Four additional rats were used for the histo-morphological studies. Total rats in this group: n=16
To minimize metabolite loss, an in vivo craniectomy was performed in all animals during anesthesia. The rat skull was carefully removed, the brain was exposed, sharply cut along the sagittal fissure and the two hemispheres were separated. The hemispheres dedicated to biochemical analyses were freeze-clamped by aluminum tongues pre-cooled in liquid nitrogen and then immersed in liquid nitrogen. The freeze-clamping procedure was introduced to accelerate freezing of the tissue, thus minimizing potential metabolite loss.
Tissue homogenization for metabolite analyses was effected as described below. After the wet weight (w.w.) determination, the frozen hemispheres were placed into 7 ml of ice-cold, nitrogen-saturated, precipitating solution (1:10 w/v) composed by CH3CN+10 mM KH2PO4, pH 7.40, (3:1; v:v), and the homogenization was performed using an Ultra-Turrax homogenizer set at 24,000 rpm/min (Janke & Kunkel, Staufen, Germany). After centrifugation at 20,690×g, for 10 min at 4° C., the clear supernatants were saved, pellets were supplemented with an aliquot of 10 mM KH2PO4 and homogenized again as described above and saved overnight at −20° C. in order to obtain a complete recovery of aqueous phase from tissue. A second centrifugation was performed (20,690×g, for 10 min at 4° C.) and supernatants combined with those previously obtained were extracted by vigorous agitation with a double volume of HPLC-grade CHCl3 and centrifuged as above.

[1] = rats 2 days post-TBI, single 1 mg/kg b.w. 30 min after trauma
[2] = rats 2 days post-TBI, single 5 mg/kg b.w. 30 min after trauma
[3] = rats 2 days post-TBI, single 15 mg/kg b.w. 30 min after trauma
[4] = rats 7 days post-sTBI, repeated 15 mg/kg b.w.
[5] = rats 7 days post-sTBI, single 1 mg/kg b.w.
[6] = rats 7 days post-sTBI, single 5 mg/kg b.w.
[7] = rats 7 days post-sTBI, single 15 mg/kg b.w.

Substance: sodium salt of dextran sulfate [LMW-DS]
- isoleucine (ILE) (2 days post-TBI): restored
- osmolyte and aromatic free amino acids (2 days post-TBI): No remarkable effects
- methionine (2 days post-TBI, any dose tested): Restoration
- TAU concentrations (7 days after injury): normalized
- L-Cystathionine (L-Cystat) (7 days post impact, highest dose, single or repeat): significant increase
- GLU (7 days post injury, 15 mg/kg b.w. single or repeat): normalization
- ARG concentration in brain homogenate [1]: 0.13 ± 0.03 nmol/g w.w.
- ASN concentration in brain homogenate [1]: 0.13 ± 0.02 µmol/g w.w.
- ASP concentration in brain homogenate [1]: 4.17 ± 0.99 nmol/g w.w.
- GABA concentration in brain homogenate [1]: 1.87 ± 0.17 µmol/g w.w.
- GLN concentration in brain homogenate [1]: 4.37 ± 0.59 µmol/g w.w.
- GLU concentration in brain homogenate [1]: 12.5 ± 0.91 µmol/g w.w.
- GLY concentration in brain homogenate [1]: 1.35 ± 0.26 nmol/g w.w.
- LYS concentration in brain homogenate [1]: 0.29 ± 0.11 µmol/g w.w.
- MET concentration in brain homogenate [1]: 0.04 ± 0.01 µmol/g w.w.
- ORN concentration in brain homogenate [1]: 0.02 ± 0.01 µmol/g w.w.
- SAH concentration in brain homogenate [1]: 0.07 ± 0.02 nmol/g w.w.
- TAU concentration in brain homogenate [1]: 4.98 ± 0.47 nmol/g w.w.
- THR concentration in brain homogenate [1]: 0.70 ± 0.15 nmol/g w.w.
- TRP concentration in brain homogenate [1]: 0.02 ± 0.01 µmol/g w.w.
- TYR concentration in brain homogenate [1]: 0.18 ± 0.03 nmol/g w.w.
- VAL concentration in brain homogenate [1]: 0.07 ± 0.03 µmol/g w.w.
- ARG concentration in brain homogenate [2]: 0.13 ± 0.03 nmol/g w.w.
- ASP concentration in brain homogenate [2]: 4.15 ± 0.95 nmol/g w.w.
- GABA concentration in brain homogenate [2]: 1.99 ± 0.18 µmol/g w.w.
- GLN concentration in brain homogenate [2]: 4.55 ± 0.44 µmol/g w.w.
- GLY concentration in brain homogenate [2]: 1.43 ± 0.28 nmol/g w.w.
- L-Cystat concentration in brain homogenate [2]: 0.31 ± 0.06 µmol/g w.w.
- LYS concentration in brain homogenate [2]: 0.37 ± 0.14 µmol/g w.w.
- ORN concentration in brain homogenate [2]: 0.01 ± 0.01 µmol/g w.w.
- SAH concentration in brain homogenate [2]: 0.07 ± 0.02 nmol/g w.w.
- TAU concentration in brain homogenate [2]: 5.15 ± 0.49 nmol/g w.w.
- THR concentration in brain homogenate [2]: 0.77 ± 0.17 nmol/g w.w.
- TRP concentration in brain homogenate [2]: 0.03 ± 0.01 µmol/g w.w.
- TYR concentration in brain homogenate [2]: 0.20 ± 0.03 nmol/g w.w.
- VAL concentration in brain homogenate [2]: 0.08 ± 0.03 µmol/g w.w.
- ARG concentration in brain homogenate [3]: 0.16 ± 0.04 nmol/g w.w.
- ASP concentration in brain homogenate [3]: 3.05 ± 0.42 nmol/g w.w.
- GLN concentration in brain homogenate [3]: 4.21 ± 0.51 µmol/g w.w.
- GLY concentration in brain homogenate [3]: 1.18 ± 0.23 nmol/g w.w.
- LEU concentration in brain homogenate [3]: 0.04 ± 0.01 µmol/g w.w.
- LYS concentration in brain homogenate [3]: 0.32 ± 0.12 µmol/g w.w.
- MET concentration in brain homogenate [3]: 0.03 ± 0.01 µmol/g w.w.
- ORN concentration in brain homogenate [3]: 0.02 ± 0.01 µmol/g w.w.
- SAH concentration in brain homogenate [3]: 0.06 ± 0.02 nmol/g w.w.
- TAU concentration in brain homogenate [3]: 4.59 ± 0.43 nmol/g w.w.
- THR concentration in brain homogenate [3]: 0.61 ± 0.13 nmol/g w.w.
- TYR concentration in brain homogenate [3]: 0.17 ± 0.03 nmol/g w.w.
- VAL concentration in brain homogenate [3]: 0.06 ± 0.03 µmol/g w.w.
- ALA concentration in brain homogenate [4]: 0.47 ± 0.05 µmol/g w.w.
- ASN concentration in brain homogenate [4]: 0.1 ± 0.02 µmol/g w.w.
- ASP concentration in brain homogenate [4]: 2.42 ± 0.39 nmol/g w.w.
- CITR concentration in brain homogenate [4]: 0.03 ± 0.01 µmol/g w.w.
- GABA concentration in brain homogenate [4]: 1.38 ± 0.14 µmol/g w.w.
- GLN concentration in brain homogenate [4]: 3.88 ± 0.4 µmol/g w.w.
- GLY concentration in brain homogenate [4]: 0.78 ± 0.10 nmol/g w.w.
- HYS concentration in brain homogenate [4]: 0.06 ± 0.01 µmol/g w.w.
- ILE concentration in brain homogenate [4]: 0.03 ± 0.01 µmol/g w.w.
- LEU concentration in brain homogenate [4]: 0.04 ± 0.01 µmol/g w.w.
- LYS concentration in brain homogenate [4]: 0.23 ± 0.07 µmol/g w.w.
- ORN concentration in brain homogenate [4]: 0.02 ± 0.01 µmol/g w.w.
- SAH concentration in brain homogenate [4]: 0.04 ± 0.04 nmol/g w.w.
- TAU concentration in brain homogenate [4]: 3.47 ± 0.44 nmol/g w.w.
- THR concentration in brain homogenate [4]: 0.77 ± 0.14 nmol/g w.w.
- TYR concentration in brain homogenate [4]: 0.14 ± 0.02 nmol/g w.w.
- VAL concentration in brain homogenate [4]: 0.07 ± 0.01 µmol/g w.w.
- ALA concentration in brain homogenate [5]: 0.57 ± 0.06 µmol/g w.w.
- ARG concentration in brain homogenate [5]: 0.13 ± 0.02 nmol/g w.w.
- ASN concentration in brain homogenate [5]: 0.1 ± 0.02 µmol/g w.w.
- ASP concentration in brain homogenate [5]: 4.17 ± 0.67 nmol/g w.w.
- CITR concentration in brain homogenate [5]: 0.03 ± 0.01 µmol/g w.w.
- GABA concentration in brain homogenate [5]: 1.73 ± 0.18 µmol/g w.w.
- GLN concentration in brain homogenate [5]: 4.1 ± 0.42 µmol/g w.w.
- GLU concentration in brain homogenate [5]: 12.1 ± 1.02 µmol/g w.w.
- GLY concentration in brain homogenate [5]: 0.98 ± 0.20 nmol/g w.w.
- HYS concentration in brain homogenate [5]: 0.06 ± 0.01 µmol/g w.w.
- L-Cystat concentration in brain homogenate [5]: 0.24 ± 0.04 µmol/g w.w.
- LYS concentration in brain homogenate [5]: 0.19 ± 0.06 µmol/g w.w.
- MET concentration in brain homogenate [5]: 0.03 ± 0.01 µmol/g w.w.
- ORN concentration in brain homogenate [5]: 0.01 ± 0.01 µmol/g w.w.
- SAH concentration in brain homogenate [5]: 0.04 ± 0.01 nmol/g w.w.
- SER concentration in brain homogenate [5]: 0.92 ± 0.16 µmol/g w.w.
- TAU concentration in brain homogenate [5]: 4.02 ± 0.51 nmol/g w.w.
- THR concentration in brain homogenate [5]: 0.71 ± 0.12 nmol/g w.w.
- TYR concentration in brain homogenate [5]: 0.13 ± 0.02 nmol/g w.w.
- VAL concentration in brain homogenate [5]: 0.08 ± 0.01 µmol/g w.w.
- ALA concentration in brain homogenate [6]: 0.44 ± 0.05 µmol/g w.w.
- ARG concentration in brain homogenate [6]: 0.15 ± 0.02 nmol/g w.w.
- ASN concentration in brain homogenate [6]: 0.1 ± 0.02 µmol/g w.w.
- ASP concentration in brain homogenate [6]: 3.63 ± 0.59 nmol/g w.w.
- CITR concentration in brain homogenate [6]: 0.03 ± 0.01 µmol/g w.w.
- GLN concentration in brain homogenate [6]: 3.86 ± 0.4 µmol/g w.w.
- GLU concentration in brain homogenate [6]: 11.8 ± 0.99 µmol/g w.w.
- GLY concentration in brain homogenate [6]: 0.88 ± 0.15 nmol/g w.w.
- HYS concentration in brain homogenate [6]: 0.06 ± 0.01 µmol/g w.w.
- L-Cystat concentration in brain homogenate [6]: 0.26 ± 0.04 µmol/g w.w.
- LYS concentration in brain homogenate [6]: 0.21 ± 0.04 µmol/g w.w.
- MET concentration in brain homogenate [6]: 0.04 ± 0.01 µmol/g w.w.
- TAU concentration in brain homogenate [6]: 3.51 ± 0.44 nmol/g w.w.
- THR concentration in brain homogenate [6]: 0.71 ± 0.15 nmol/g w.w.
- TRP concentration in brain homogenate [6]: 0.02 ± 0.01 µmol/g w.w.
- TYR concentration in brain homogenate [6]: 0.13 ± 0.02 nmol/g w.w.
- VAL concentration in brain homogenate [6]: 0.08 ± 0.01 µmol/g w.w.
- ALA concentration in brain homogenate [7]: 0.38 ± 0.04 µmol/g w.w.
- ARG concentration in brain homogenate [7]: 0.14 ± 0.02 nmol/g w.w.
- ASN concentration in brain homogenate [7]: 0.1 ± 0.02 µmol/g w.w.
- CITR concentration in brain homogenate [7]: 0.03 ± 0.01 µmol/g w.w.
- GABA concentration in brain homogenate [7]: 1.43 ± 0.15 µmol/g w.w.
- GLN concentration in brain homogenate [7]: 3.73 ± 0.38 µmol/g w.w.
- GLU concentration in brain homogenate [7]: 10.2 ± 0.86 µmol/g w.w.
- GLY concentration in brain homogenate [7]: 0.78 ± 0.12 nmol/g w.w.
- HYS concentration in brain homogenate [7]: 0.06 ± 0.01 µmol/g w.w.
- L-Cystat concentration in brain homogenate [7]: 0.25 ± 0.04 µmol/g w.w.
- LYS concentration in brain homogenate [7]: 0.21 µmol/g w.w.
- MET concentration in brain homogenate [7]: 0.04 ± 0.01 µmol/g w.w.
- SAH concentration in brain homogenate [7]: 0.04 ± 0.01 nmol/g w.w.
- SER concentration in brain homogenate [7]: 0.76 ± 0.12 µmol/g w.w.
- TAU concentration in brain homogenate [7]: 3.38 ± 0.44 nmol/g w.w.
- THR concentration in brain homogenate [7]: 0.72 ± 0.14 nmol/g w.w.
- TYR concentration in brain homogenate [7]: 0.14 ± 0.02 nmol/g w.w.
